Assay results from PubChem BioAssay AID1648 (Sanford-Burnham Center for Chemical Genomics, 2009).
Active and inactive are the calls of the source. No rule for the calls is given here.

Molecular target: Serine/threonine-protein kinase mTOR (Homo sapiens) (UniProt P42345)
Assay: binders of mTOR FRB domain, biophysical, NMR (AID 1648)
Conditions: NMR binding to FRB domain, chemical shift

Serine/threonine-protein kinase mTOR (Homo sapiens), sequence (P42345 2015-2114): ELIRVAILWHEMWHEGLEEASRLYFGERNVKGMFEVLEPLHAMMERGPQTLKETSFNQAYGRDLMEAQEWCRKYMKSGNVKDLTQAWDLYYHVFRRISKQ

Row | Compound | Kd
1 | NC(=NCCC[C@H](N)C(=O)O)NC(CCC(=O)O)C(=O)O (stereo not given in full) | > 4 mM (inactive)
2 | O=C1CSC(=NC(=O)c2ccccc2)N1 | > 4 mM (inactive)
3 | CC12CCC(O)CC1CCC1C2[C@H](O)CC2(C)C(C3=CC(=O)OC3)CCC12O (stereo not given in full) | > 4 mM (inactive)
4 | COc1nc(C)ccc1-c1noc(-c2ccncc2)n1 | > 4 mM (inactive)
5 | NC(=O)Cc1nc(-c2ccc(F)cc2)cs1 | > 4 mM (inactive)
6 | CN1CCC2(CC1)CC1CC3C=CC1(CN2)O3 (stereo not given) | > 4 mM (inactive)
7 | CC(=O)Nc1ccc(Nc2nnc(C)c(=O)[nH]2)cc1 | > 4 mM (inactive)
8 | O=C(Nc1cnccn1)c1cccc(C(F)(F)F)c1 | > 4 mM (inactive)
9 | Cc1c(C(=O)NC2=NCCS2)oc2ccccc12 | > 4 mM (inactive)
10 | Nc1ncnc2nc(SCCN3CCCCC3)[nH]c12 | > 4 mM (inactive)
11 | COc1ccc(/C=C2/NC(=S)NC2=O)cc1 | > 4 mM (inactive)
12 | COc1c(C(=O)N2CCCC2)ccc2ccccc12 | > 4 mM (inactive)
13 | COC(=O)C[C@H]1C(C)(C)C(=O)[C@@H]2CC3C4=CC(=O)O[C@@H](c5ccoc5)[C@]4(C)CCC3C1(C)C2=O (stereo not given in full) | > 4 mM (inactive)
14 | O=C(O)C1CC(=O)N(Cc2cccs2)C1 (stereo not given) | > 4 mM (inactive)
15 | O=C(O)C1CC(=O)N(CCc2ccc(Cl)cc2)C1 (stereo not given) | > 4 mM (inactive)
16 | Cc1cc2nc(SCC(=O)O)nc(C)c2cc1C | > 4 mM (inactive)
17 | O=c1ccnc(Nc2ccccc2O)[nH]1 | > 4 mM (inactive)
18 | Nc1nnc(-c2ccncc2)s1 | > 4 mM (inactive)
19 | Cc1occc1C(=O)Nc1sccc1C(N)=O | > 4 mM (inactive)
20 | O=C(Nc1cnccn1)c1cccnc1 | > 4 mM (inactive)
21 | COc1cc(O)c(C)c(O)c1 | > 4 mM (inactive)
22 | O=C1CCCCCN1CO | > 4 mM (inactive)
23 | O=S(=O)(N1CCCCC1)n1nnc2ccccc21 | > 4 mM (inactive)
24 | CC(=O)O[C@H]1C[C@@H](OC(C)=O)C(C)(C)C2C[C@@H](OC(C)=O)[C@@]3(C)C4=CC(=O)O[C@@H](c5ccoc5)[C@]4(C)CCC3[C@]21C (stereo not given in full) | > 4 mM (inactive)

Row | Compound | Kd
25 | O=C(NCN1CCOCC1)c1cnccn1 | > 4 mM (inactive)
26 | O=C(O)CCC(=O)c1c[nH]c2ccccc12 | > 4 mM (inactive)
27 | CC(=O)Nc1cc(N2C(=O)C=CC2=O)ccc1Cl | > 4 mM (inactive)
28 | Cc1nnc(C)n1/N=C/c1cccs1 | > 4 mM (inactive)
29 | O=C1CC(=O)N(c2cccc(Cl)c2)N1 | > 4 mM (inactive)
30 | Nc1cccc(-n2cccc2)c1 | > 4 mM (inactive)
31 | O=C(CSc1ncn[nH]1)c1ccccc1 | > 4 mM (inactive)
32 | Cc1ccc(/C=N/n2c(C)nnc2C)cc1 | > 4 mM (inactive)
33 | O=C(CC1Nc2ccccc2NC1=O)Nc1ccc(O)cc1 (stereo not given) | > 4 mM (inactive)
34 | CCCCCc1c2c(cc(O)c1C(=O)O)OC(=O)c1c(cc(OC)cc1C(=O)CCCC)O2 | > 4 mM (inactive)
35 | O=C1CCN(c2ccccc2)N1 | > 4 mM (inactive)
36 | OC1CNCc2cc3c(cc21)OCCO3 (stereo not given) | > 4 mM (inactive)
37 | S=c1nc[nH]c2c1cnn2-c1ccccc1 | > 4 mM (inactive)
38 | NC(=O)c1ccccc1N=Cc1ccco1 | > 4 mM (inactive)
39 | O=C(NCc1cccs1)c1ccc2c(c1)OCCO2 | > 4 mM (inactive)
40 | CC(=O)Nc1ccc(Oc2nc(C)cc(C)n2)cc1 | > 4 mM (inactive)
41 | Cc1csc2nc3ccccc3c(=O)n12 | > 4 mM (inactive)
42 | O=C(c1ccc(N2CCNCC2)cc1)c1cccnc1 | > 4 mM (inactive)
43 | O=C1C2C3C=CC(C3)C2C(=O)N1c1cccnc1 (stereo not given) | > 4 mM (inactive)
44 | O=C(/C=C/c1ccc(O)cc1)c1ccc(O)cc1O | > 4 mM (inactive)
45 | COc1ccc2c(c1)OC/C(=C/c1ccc(O)c(O)c1)C2=O | > 4 mM (inactive)
46 | Cc1cc(C)nc(/N=C(\N)N2CCc3ccccc32)n1 | > 4 mM (inactive)
47 | OCc1ccc(Oc2ccccc2)nc1 | > 4 mM (inactive)
48 | COc1ccc(-c2coc3c(OC)c(OC)cc(OC)c3c2=O)cc1 | > 4 mM (inactive)

Row | Compound | Kd
49 | NNc1ncnc2sccc12 | > 4 mM (inactive)
50 | NC1CSCC1O (stereo not given) | > 4 mM (inactive)
51 | CC(C)c1ccccc1NC(=O)c1cnccn1 | > 4 mM (inactive)
52 | Cc1ccccc1N1CCN(C(=O)C2CCCCC2)CC1 | > 4 mM (inactive)
53 | COc1ccc(N2C(=N)C(C)(C)NC2=O)cc1 | > 4 mM (inactive)
54 | COc1ccccc1NC(=O)C1CCCCC1 | > 4 mM (inactive)
55 | c1ccc(-c2nsc(N3CCCNCC3)n2)cc1 | > 4 mM (inactive)
56 | Cc1cc(SCC(=O)c2ccccc2)nc(=O)[nH]1 | > 4 mM (inactive)
57 | O=C(O)c1ccc(-n2cccc2)cc1 | > 4 mM (inactive)
58 | OCc1csc(-c2ccccc2)n1 | > 4 mM (inactive)
59 | O=C(COc1ccccc1Cl)N1CCCC1 | > 4 mM (inactive)
60 | CC1(C)C2CC(=O)[C@]3(C)C(CC[C@@]4(C)[C@H](c5ccoc5)OC(=O)C5OC543)[C@@]2(C)[C@@H](O)C[C@H]1O (stereo not given in full) | > 4 mM (inactive)
61 | Nc1nonc1-c1nc2ccccc2[nH]1 | > 4 mM (inactive)
62 | CC[C@H]1CN2CCC1C[C@@H]2[C@@H](O)c1ccnc2ccc(OC)cc12 (stereo not given in full) | > 4 mM (inactive)
63 | C=CCN1CC[C@]23c4c5ccc(O)c4OC2C(=O)CC[C@@]3(O)[C@H]1C5 (stereo not given in full) | > 4 mM (inactive)
64 | NC1=NC(=O)/C(=C/c2ccccc2[N+](=O)[O-])S1 | > 4 mM (inactive)
65 | NS(=O)(=O)c1ccc2c3c(cccc13)C(=O)N2 | > 4 mM (inactive)
66 | OCC1Cc2ccccc2CN1 (stereo not given) | > 4 mM (inactive)
67 | CN1CCN(C(=O)c2ccccc2N)CC1 | > 4 mM (inactive)
68 | CN1CCN(C(=O)c2ccco2)CC1 | > 4 mM (inactive)
69 | O=c1cc(-c2ccccc2)oc2cc(O)c(O)c(O)c12 | > 4 mM (inactive)
70 | Nc1ncnc(Nc2ccccc2C(F)(F)F)n1 | > 4 mM (inactive)
71 | Cc1cc(=O)[nH]c2ccccc12 | > 4 mM (inactive)
72 | CC1NC(C(=O)O)Cc2c1[nH]c1ccccc21 (stereo not given) | > 4 mM (inactive)

Row | Compound | Kd
73 | Cn1c(O)c(C=NCC2CCNCC2)c(=O)n(C)c1=O | > 4 mM (inactive)
74 | Nc1cccc2nonc12 | > 4 mM (inactive)
75 | Cc1nc(-c2cc(C(=O)O)no2)cs1 | > 4 mM (inactive)
76 | O=C(O)c1cc2ccccc2[nH]1 | > 4 mM (inactive)
77 | OC12CC3CC(C1)C1(NCCS1)C(C3)C2 (stereo not given) | > 4 mM (inactive)
78 | CN1CCC(NC(=O)c2c(F)cccc2Cl)CC1 | > 4 mM (inactive)
79 | O=C(Nc1ccccc1)c1cccc(N2C(=O)CCC2=O)c1 | > 4 mM (inactive)
80 | O=S1(=O)CCC(NC(=S)Nc2ccccc2)C1 (stereo not given) | > 4 mM (inactive)
81 | Cn1ncc(CO)c1-c1ccccc1 | > 4 mM (inactive)
82 | O=C(O)[C@H](O)[C@@](O)(Cc1ccc(O)cc1)C(=O)O | > 4 mM (inactive)
83 | NC(=O)NC1C=CS(=O)(=O)C1 (stereo not given) | > 4 mM (inactive)
84 | CCc1ccc2oc(-c3cc(N)cc(C)c3O)nc2c1 | > 4 mM (inactive)
85 | CN1CCC(N(C)C2CCN(C)CC2)CC1 | > 4 mM (inactive)
86 | N#CCSc1nnc2ccc3ccccc3n12 | > 4 mM (inactive)
87 | CC[C@H](CCC(C)[C@H]1CCC2C3CCC4C[C@@H](O)CC[C@]4(C)C3CC[C@@]21C)C(C)C (stereo not given in full) | > 4 mM (inactive)
88 | CC(=O)Nn1c(=O)[nH]c2ccccc2c1=O | > 4 mM (inactive)
89 | Nc1ncnc2nc[nH]c12 | > 4 mM (inactive)
90 | O=S1(=O)NC(=NCc2ccccc2)c2ccccc21 | > 4 mM (inactive)
91 | Cc1ccc2cc(C(=O)O)ccc2n1 | > 4 mM (inactive)
92 | CC(=O)Nc1cccc(-c2nnc3n2CC(C)S3)c1 (stereo not given) | > 4 mM (inactive)
93 | COc1ccc(Cc2nccc3cc(OC)c(OC)cc23)cc1OC | > 4 mM (inactive)
94 | CC1(C)C(=O)N(O)C(C)(C)C(=O)N1O | > 4 mM (inactive)
95 | C[C@@H]1CC[C@]2(C(=O)O)CC[C@]3(C)C(=CCC4[C@@]5(C)CC[C@H](O)C(C)(C)C5CC[C@]43C)C2[C@H]1C (stereo not given in full) | > 4 mM (inactive)
96 | CC(=O)O[C@@H]1CC2C(C)(C)[C@H](O)C=C[C@]2(C)C2CC[C@@]3(C)[C@H](c4ccoc4)OC(=O)C4OC43[C@@]21C (stereo not given in full) | > 4 mM (inactive)

Row | Compound | Kd
97 | CSc1nnc2c(n1)OC(C)=Nc1ccccc1-2 | > 4 mM (inactive)
98 | Cc1nnc(SCC(=O)N2CCCCC2)s1 | > 4 mM (inactive)
99 | CCN1CCc2c(sc(N)c2C#N)C1 | > 4 mM (inactive)
100 | O=C(NC1=NCCS1)c1ccc2snnc2c1 | > 4 mM (inactive)
101 | O=C(O)c1c[nH]c2ccccc12 | > 4 mM (inactive)
102 | CC1=NCCc2c1[nH]c1cc(O)ccc21 | > 4 mM (inactive)
103 | NC(=O)CSc1ccc(Br)cc1 | > 4 mM (inactive)
104 | NC(=O)Cn1cnc2c(cnn2-c2ccccc2)c1=O | > 4 mM (inactive)
105 | Cc1cccc(OCc2nnc(N)s2)c1 | > 4 mM (inactive)
106 | CC(=O)Oc1ccc(-c2nc(-c3cccnc3)no2)cc1 | > 4 mM (inactive)
107 | CC(CCC(=O)O)[C@H]1CCC2C3CC[C@@H]4CCCC[C@]4(C)C3CC[C@@]21C (stereo not given in full) | > 4 mM (inactive)
108 | CN(C)S(=O)(=O)c1ccc(C(=O)NN)cc1 | > 4 mM (inactive)
109 | CC(=O)CC(=O)N1C(O)CC[N+]1(C)C (stereo not given) | > 4 mM (inactive)
110 | CN1C(=O)CC[C@H]1c1cccnc1 | > 4 mM (inactive)
111 | O=C(O)Cn1cc(C(F)(F)F)ccc1=O | > 4 mM (inactive)
112 | Cn1cnnc1Sc1ncnc(N)c1[N+](=O)[O-] | > 4 mM (inactive)
113 | NC(=O)CSc1ccc(-c2ccco2)nn1 | > 4 mM (inactive)
114 | O=C(Nc1nnc(-c2cccnc2)o1)c1ccccc1F | > 4 mM (inactive)
115 | C/C=C/C(=O)Nc1ccc(NC(C)=O)cc1 | > 4 mM (inactive)
116 | O=C(Nc1ccc2c(c1)OCCO2)c1ccncc1 | > 4 mM (inactive)
117 | COc1ccc(-c2nnc(-c3ccc(N)cc3)o2)cc1 | > 4 mM (inactive)
118 | CC(=O)NN1C(=O)c2cccc3cccc(c23)C1=O | > 4 mM (inactive)
119 | O=c1[nH]oc2ccccc12 | > 4 mM (inactive)
120 | CC(=O)NS(=O)(=O)c1ccc(C)cc1 | > 4 mM (inactive)
